A short description of data set [1]: Suspension stability by microcentrifuge dissolution test. Type of data set: physicochemical. The note with it: dosed into MFDS. As to the method:
Suspension stability of 10% A HPMCAS-H and 25% A HPMCAS-H formulations were evaluated using the microcentrifuge dissolution test, as detailed below.
First, a 0.5 wt % Methocel A (Methylcellulose, Methocel A4M Premium, DOW Chemical Company) vehicle was prepared and later used as the suspension vehicle. Specifically, this vehicle was prepared by adding 0.5 g of Methocel A to 30 mL deionized water at 90° C. and stirring until well dispersed. To the resultant dispersion was added 70 mL of water and the mixture was placed into an ice bath and stirred until Methocel A is dissolved.
A 20 mgA/mL indibulin SDD suspension of each of the 10% A HPMCAS-H and 25% A HPMCAS-H formulations was then prepared by adding the indibulin HPMCAS SDD to the aqueous 0.5 wt % Methocel A vehicle (as prepared above). Each suspension was then tested in the microcentrifuge dissolution test (as described above) immediately after constitution in the aqueous 0.5 wt % Methocel A vehicle (O-hour or Initial), and one hour after the constitution in the aqueous 0.5 wt % Methocel A vehicle. The stability of each suspension was determined by comparing the dissolution profile of the one-hour suspension to the performance of the initial suspension. […]

The conditions of data set [2]: cited from earlier work.
The nature of data set [3]: Membrane-permeation test. Type of data set: physicochemical. The conditions noted are these: feed MFDS, 37° C. The protocol:
The 10% A HPMCAS-H(HPMCAS high grade), 15% A HPMCAS-H, 20% A HPMCAS-H, 25% A HPMCAS-H, 25% A HPMCAS-M (HPMCAS medium grade) and 50% A HPMCAS-M SDD formulations were also evaluated in a membrane-permeation test at 37° C. in a temperature-controlled box. Test procedures were described, for example, in U.S. Pat. No. 7,611,630. For example, a membrane-permeation test of 10% A HPMCAS-H indibulin SDD was performed using the following procedures: • 1. Accurately weigh 1 mgA (10 mg of 10% A:HPMCAS-H SDD) into the outer-glass reservoir of the test apparatus. All samples are prepared in duplicates. • 2. Add 5 mL MFDS and start the timer. • 3. Cap each reservoir and vortex at medium setting for 1 minute. Stir at 100 rpm. • 4. After 9 minutes of addition of MFDS, add 5 mL of 80/20 (wt/wt) […]/Decane permeate to the inside of the membrane cells. • 5. After 1 minute (at 10 minutes) place a cell containing the permeate solution into the outer reservoir holding the feed/drug solution. Take a O-minute time point. Tilt the entire apparatus at a 45° angle to ensure that no air bubbles are trapped under the membrane. • 6. Place apparatus back on stir plate at 100 rpm. • 7. […]
This test assessed the rate of solubilized drug indibulin that passed through a synthetic membrane from aqueous MFDS to an aqueous immiscible organic sink solution. […]

Data set [4] can be described thus: Microcentrifuge dissolution test in model fasted duodenal solution (MFDS). Type of data set: physicochemical. The note with it: dosed at 200 μgA/mL. As to the method: The microcentrifuge dissolution test was performed to assess the ability of the indibulin SDD to sustain solubilized drug levels and to determine suspension stability. Using this method, 10% A HPMCAS-H(HPMCAS high grade), 15% A HPMCAS-H, 20% A HPMCAS-H, 25% A HPMCAS-H, 25% A HPMCAS-M (HPMCAS medium grade) and 50% A HPMCAS-M SDD formulations were tested. Specifically, the microcentrifuge dissolution test measures the supersaturation of drug above the crystalline solubility when dosed into the model fasted duodenal solution (MFDS).
In the microcentrifuge dissolution test, indibulin HPMCAS SDDs were each dosed into MFDS, which is 0.5% taurocholic acid, sodium salt hydrate (NaTC)/1-palmitoyl-2-oleoyl-sn-glycero-3-phosphocholine (POPC) in phosphate buffer solution (PBS, pH 6.5). In each resulted sample, the concentration of dissolved indibulin would have been 200 μg active drug per mL (200 μgA/mL), if all of the indibulin had dissolved. The samples were centrifuged at 13,000 rpm at 37° C. for 1 minute. The supernatant solution of each sample was then analyzed by HPLC. The remaining sample was mixed and allowed to stand undisturbed until next measurement was taken. […]

For `O=C(Nc1ccncc1)C(=O)c1cn(Cc2ccc(Cl)cc2)c2ccccc12` [Bulk Crystalline Drug, indibulin], the Cmax90 came to 2000 ng/mL in data set [1] (20 mgA/mL suspension in 0.5 wt % Methocel A, hold time 0 hr) and 2000 ng/mL in data set [4] (maximum concentration of indibulin in MFDS pH 6.5, first 90 min). In addition, the AUC90 in data set [1] (suspension hold time 0 hr) is 150 µg·min/mL; in data set [4] (MFDS pH 6.5, first 90 min) it was 160 µg·min/mL. In data set [2], the “solubility in water, methanol, ethanol or 2-propanol” value was “practically insoluble”. Moreover, in data set [3], the “Average Flux” value is on record as 0.10 μgA/cm^2 × min. The C90 in data set [4] (concentration in MFDS at 90 min) turned out to be 1 µg/mL. Moreover, the C1200 in data set [4] (concentration in MFDS at 1200 min) came out at 3 µg/mL.

The values above are taken from patent publication US20140004192A1, “PHARMACEUTICAL FORMULATIONS OF INDIBULIN AND USES THEREOF” (Ziopharm Oncology, Inc., priority 2012, published 2014).
